From publication PMC6405930, “Conservation of the Amyloid Interactome Across Diverse Fibrillar Structures” (Scientific Reports, 2019)

Key:
Ab1 fibrils [1] = tested on: T1, Ab1 fibrils; test: Determination of the binding capacity (dye depletion from supernatant); design: species or system human; conditions: 2 nmol dye (20 µM) with 10 μg fibril material, one hour
T1 construct: Synthetic amyloid β peptide 1–40 was purchased from Caslo Aps (Lyngby, Denmark); purchased Caslo Aps (Lyngby, Denmark); host or cells: synthetic peptide
Procedure: (§1) Control samples (without fibril material) were prepared similarly. Fibrils and fibril-bound ligand were pelleted by centrifugation (17,000 g, 30 min) and the supernatant (90 μL) was transferred to a 96 well half-area plate (Corning 3881).

Ab2 fibrils [2] = tested on: T2, Ab2 fibrils; test: as above; design: species or system human; conditions: 2 nmol dye (20 µM) with 10 μg fibril material, one hour
T2 construct: Two structurally distinct fibrils of the Aβ(1–40) peptide associated with AD
Procedure: as §1

glucagon fibrils [3] = target: T3, glucagon fibrils (Homo sapiens, UniProt P01275); test: as above; conditions: 2 nmol dye (20 µM) with 10 μg fibril material, one hour
T3 construct: fibrils of the peptide hormone glucagon
T3 sequence (P01275 53-81 limits assumed): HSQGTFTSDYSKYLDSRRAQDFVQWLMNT
Procedure: as §1

αSN fibrils [4] = target: T4, αSN fibrils (Homo sapiens, UniProt P37840); test: as above; conditions: 2 nmol dye (20 µM) with 10 μg fibril material, one hour
Procedure: as §1

C-36 fibrils [5] = target: T5, C-36 fibrils (Homo sapiens, UniProt P01009); test: as above; conditions: 2 nmol dye (20 µM) with 10 μg fibril material, one hour
T5 construct: the 36 residue C-terminal fragment of α1-antitrypsin (C-36)
T5 sequence (P01009 383-418 limits assumed): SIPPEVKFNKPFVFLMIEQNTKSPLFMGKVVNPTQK
Procedure: as §1

FAS4 AD aggregates = tested on: T6, FAS4 AD aggregates; test: Fibril titration with ThT (fluorescence); assay type: binding, human; conditions: ThT mixed with FAS4 AD aggregates
T6 construct: a mutated version of the FAS1-4 domain of TGFBIp
Procedure: (§2) Fibril material (7.5 μg) was set up in 100 μL phosphate buffer in a 96 well half-area NBS plate (NUNC/Terma).

Ab2 fibrils (Aβ(1–40)) = Ab2 fibrils (Aβ(1–40)) (Homo sapiens, UniProt P05067); test: Fibril titration with ThT (fluorescence); assay type: binding
Chain of Ab2 fibrils (Aβ(1–40)) (P05067 672-711): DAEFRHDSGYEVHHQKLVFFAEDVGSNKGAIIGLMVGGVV
Procedure: as §2

αSN fibrils [6] = target: T4, αSN fibrils; test: Fibril titration with ThT (fluorescence); assay type: binding; conditions: titration experiment
Procedure: as §2

Ab1 fibrils (Aβ(1–40)) = Ab1 fibrils (Aβ(1–40)) (Homo sapiens, UniProt P05067); test: Fibril titration with ThT (fluorescence); assay type: binding
Chain of Ab1 fibrils (Aβ(1–40)) (P05067 672-711): as above
Procedure: as §2

[7] = tested on: chymotrypsinogen amorphous aggregates; test: Fibril titration with ThT (fluorescence); assay type: binding; conditions: TCA-induced amorphous aggregates
Procedure: as §2

C-36 fibrils [8] = target: T5, C-36 fibrils; test: Fibril titration with ThT (fluorescence); assay type: binding
Procedure: as §2

glucagon fibrils [9] = target: T3, glucagon fibrils; test: Fibril titration with ThT (fluorescence); conditions: 7.5 μg fibril material, single-site binding model
Procedure: as §2

glucagon fibrils [10] = target: T3, glucagon fibrils; test: Fibril incubation with CSF, quantitative MS/MS of bound proteins; assay type: binding; conditions: 4:1 w/w CSF protein:fibril
Ab1 fibrils [11] = tested on: T1, Ab1 fibrils; test: as above; assay type: binding, human; conditions: 4:1 w/w CSF protein:fibril
FAS4-AD aggregates [12] = tested on: T7, FAS4-AD aggregates; test: as above; assay type: binding, human; design: key to Identification status of CSF protein bound: FAS4-AD: *: Identified, but not quantified; —: Not identified in any of the samples; conditions: symbol cells
T7 construct: aggregates of a mutated version of the FAS1-4 domain of TGFBIp

C-36 fibrils [13] = target: T5, C-36 fibrils; test: as above; assay type: binding; conditions: 4:1 w/w CSF protein:fibril
[14] = tested on: fibril systems (Ab1, Ab2, glucagon, αSN and C-36); test: Fibril incubation with CSF, quantitative MS/MS, span over the fibril systems; assay type: binding, human
Procedure: Plasma and CSF solutions were centrifuged (40,000 g, 20 min) to remove any aggregates. The protein concentration was determined using 280 nm absorbance assuming 1 Abs = 1 mg/mL. […] Control samples (without fibril material) were prepared similarly. All samples were incubated at room temperature for one hour under gentle agitation. Fibrils and fibril-bound proteins were pelleted by centrifugation at 17,000 g for 30 minutes. The supernatant (175 μL) was removed and the aggregate was re-suspended in 175 μL PBS and pelleted again before further preparation for gel analysis and spin-filter assisted digest for quantitative MS/MS. […]
(§3) The micro-purified tryptic peptides were dissolved in 0.1% formic acid, injected and trapped on an in-house packed trap column (2 cm × 100 μm I.D) with RP ReproSil-Pur C18-AQ 3 μm resin (Dr. Maisch GmbH). […] Elution from the analytical column was performed with a linear gradient from 5% to 35% phase B (90% acetonitrile with 0.1% formic acid) over 20 min for protein identification and 50 min for quantitative analysis, respectively.
All samples were analysed three times, yielding nine MS/MS experiments for each fibril for both plasma and CSF. […]

αSN fibrils [15] = target: T4, αSN fibrils; test: Fibril incubation with plasma, quantitative MS/MS of bound proteins; assay type: binding; conditions: 50:1 w/w plasma protein:fibril
Method in brief: (§4)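 Fibrils (20 μg) incubated 1 h at room temperature with plasma (500 μg) or CSF (40 μg) protein in PBS/5 mM EDTA; pellets washed, guanidinium-dissolved, trypsin-digested. Label-free LC-MS/MS XIC of top three peptides, normalized to total ion intensity, averaged over nine runs; fibril-free controls.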

Ab2 fibrils [16] = tested on: T2, Ab2 fibrils; test: Fibril incubation with CSF, quantitative MS/MS of bound proteins; assay type: binding, human; conditions: 4:1 w/w CSF protein:fibril
FAS4-AD aggregates [17] = tested on: T7, FAS4-AD aggregates; test: Fibril incubation with plasma, quantitative MS/MS of bound proteins; assay type: binding, human; conditions: 50:1 w/w plasma protein:fibril
Method in brief: as §4

C-36 fibrils [18] = target: T5, C-36 fibrils; test: as above; assay type: binding; conditions: 50:1 w/w plasma protein:fibril
αSN fibrils [19] = target: T4, αSN fibrils; test: Fibril incubation with CSF, quantitative MS/MS of bound proteins; assay type: binding; conditions: 4:1 w/w CSF protein:fibril
glucagon fibrils [20] = target: T3, glucagon fibrils; test: Fibril incubation with plasma, quantitative MS/MS of bound proteins; assay type: binding; conditions: 50:1 w/w plasma protein:fibril
Ab1 fibrils [21] = tested on: T1, Ab1 fibrils; test: as above; assay type: binding, human; conditions: 50:1 w/w plasma protein:fibril
Method in brief: as §4

[22] = tested on: fibril systems (Ab1, Ab2, glucagon, αSN and C-36); test: Fibril incubation with plasma, quantitative MS/MS, span over the fibril systems; assay type: binding, human
Procedure: Plasma and CSF solutions were centrifuged (40,000 g, 20 min) to remove any aggregates. The protein concentration was determined using 280 nm absorbance assuming 1 Abs = 1 mg/mL. […] Control samples (without fibril material) were prepared similarly. All samples were incubated at room temperature for one hour under gentle agitation. Fibrils and fibril-bound proteins were pelleted by centrifugation at 17,000 g for 30 minutes. The supernatant (175 μL) was removed and the aggregate was re-suspended in 175 μL PBS and pelleted again before further preparation for gel analysis and spin-filter assisted digest for quantitative MS/MS.
The fibril-protein pellets were transferred to spin-filters (0.22 μm), washed twice in PBS (100 μL) and once in 1 M NaCl (100 μL). The fibrils and fibril-bound proteins were dissolved by one-hour incubation in 100 μL 6 M guanidinium chloride followed by elution from the spin-filter. […]
as §3
All samples were analysed three times, yielding nine MS/MS experiments for each fibril for both plasma and CSF. For the area-based extracted ion chromatogram (XIC) quantification, the acquisition method was set up as an information-dependent acquisition (IDA) experiment collecting up to 25 MS/MS spectra in each 1.6 sec cycle using an exclusion window of 6 sec. […]
XIC quantification was based on the average ion intensity of the three most abundant peptides for each protein. Only proteins quantified in at least four out of nine MS/MS experiments per fibril were included in the quantification. […]

Ab2 fibrils [23] = tested on: T2, Ab2 fibrils; test: Fibril incubation with plasma, quantitative MS/MS of bound proteins; assay type: binding, human; conditions: 50:1 w/w plasma protein:fibril
[24] = 7.5 μg fibril material, two-site binding model

Cc1ccc2c(c1)sc(-c1ccc(N(C)C)cc1)[n+]2C [ThT, Thioflavin T]
Ligand bound (binding capacity) (Ab1 fibrils [1]): 42 nmol/mg fibril
Ligand bound (binding capacity) (Ab2 fibrils [2]): 35 nmol/mg fibril
Ligand bound (binding capacity) (glucagon fibrils [3]): 18 nmol/mg fibril
Ligand bound (binding capacity) (αSN fibrils [4]): 42 nmol/mg fibril
Ligand bound (binding capacity) (C-36 fibrils [5]): 10 nmol/mg fibril
ThT fluorescence (FAS4 AD aggregates): did not detect any fluorescence
Imax1 (Ab2 fibrils (Aβ(1–40)); [24]): 23,000 rfu
Imax2 (Ab2 fibrils (Aβ(1–40)); [24]): −21,250 rfu
ThT fluorescence level (Ab2 fibrils (Aβ(1–40)); titration experiment): 2–5,000 RFU
ThT fluorescence level (αSN fibrils [6]): 2–5,000 RFU
Imax1 (Ab1 fibrils (Aβ(1–40)); [24]): 23,000 rfu
Imax2 (Ab1 fibrils (Aβ(1–40)); [24]): −22,000 rfu
ThT fluorescence level (Ab1 fibrils (Aβ(1–40)); titration experiment): 2–5,000 RFU
ThT signal [7]: did not result in any ThT signal
maximum ThT fluorescence intensity (Imax) (C-36 fibrils [8]; 7.5 μg fibril material, single-site binding model): 12,500 rfu
Kd (C-36 fibrils [8]; 7.5 μg fibril material, single-site binding model, read-out: dissociation constant (kd)): 0.63 µM
ThT fluorescence level (C-36 fibrils [8]; titration experiment): 12,500 RFU
maximum ThT fluorescence intensity (Imax) (glucagon fibrils [9]): 1,000 rfu
Kd (glucagon fibrils [9]; read-out: dissociation constant (kd)): 1.45 µM

Vitronectin: plasma/CSF protein bound to fibrils
Relative composition of CSF proteins bound: Glucagon (glucagon fibrils [10]): 0.2 ± 0.1 % of total protein
Relative composition of CSF proteins bound: Ab1 (Ab1 fibrils [11]): 1.1 ± 0.0 % of total protein
Identification status of CSF protein bound: FAS4-AD (FAS4-AD aggregates [12]): —
Relative composition of CSF proteins bound: C-36 (C-36 fibrils [13]): 0.8 ± 0.1 % of total protein
contribution to the fibril interactomes [14]: 0.2–3.6%
Relative composition of plasma proteins bound: αSN (αSN fibrils [15]): 9.3 ± 2.2 % of total protein
Relative composition of CSF proteins bound: Ab2 (Ab2 fibrils [16]): 1.3 ± 0.3 % of total protein
Relative composition of plasma proteins bound: FAS4-AD (FAS4-AD aggregates [17]): 1.6 ± 0.4 % of total protein
Relative composition of plasma proteins bound: C-36 (C-36 fibrils [18]): 4.9 ± 0.5 % of total protein
Relative composition of CSF proteins bound: αSN (αSN fibrils [19]): 3.6 ± 0.2 % of total protein
Relative composition of plasma proteins bound: Glucagon (glucagon fibrils [20]): 3.7 ± 0.1 % of total protein
Relative composition of plasma proteins bound: Ab1 (Ab1 fibrils [21]): 17.1 ± 1.9 % of total protein
contribution to the fibril interactomes [22]: 3.7–17.1%
Relative composition of plasma proteins bound: Ab2 (Ab2 fibrils [23]): 12.1 ± 2.1 % of total protein
